Measurements taken from patent US8552052B2, “Use of diindolylmethane-related indoles for the treatment and prevention of respiratory syncytial virus associated conditions” (BioResponse, L.L.C., priority 2004, dated 2013).
“Also recorded” adds a separate entry of the source.

Tested on: Caspase 3
Assay: Ac-DEVD-AFC caspase-3 protease assay of lung homogenate of RSV infected BALB/c mice
Type: in vivo
Conditions: oral and subcutaneous DIM, FIG. 5A
Description: The Following Experimental BALB/c Groups and Treatment Protocol Using DIM were Studied: • 1. RSV infected positive control group, infected with RSV and injected subcutaneously (SC) once daily with DMSO/Phosphate Buffered Saline (PBS) vehicle. • 2. RSV infected, Low dose Parenteral DIM group (15 mg/kg/day), injected SC once daily with DIM suspension • 3. RSV infected, High dose DIM Group (150 mg/kg/day), injected SC once daily with DIM suspension • 4. RSV infected, orally treated DIM group (250 mg/kg/day from absorption enhanced DIM [Example 6.1]), added to powdered feed • 5. Uninfected negative control group, nasally administered vehicle only, and injected subcutaneously (SC) once daily with DMSO/PBS vehicle
Mouse treatment, infection and harvest. Intranasal application of RSV in BALB/c mice followed an established procedure (Bitko et al., 2005, Nat Med. 11(1):50-5) and causes predictable pulmonary disease and inflammation. For RSV infection, RSV stock was diluted such that each mouse was given 10^7 pfu (plaque forming unit) of the virus intranasally. […]

c1ccc2c(Cc3c[nH]c4ccccc34)c[nH]c2c1 [DIM, 3,3′-diindolylmethane]
apoptosis in mouse lung homogenate: activated Caspase 3: increased apoptosis in lung tissue homogenate; also recorded: increased levels of apoptosis-specific, activated Caspase 3
